Test [1] concerns the target T1, NaV1.8 (Homo sapiens, UniProt Q9Y5Y9). As to the kind of experiment: Optical membrane potential assay, NaV 1.8 inhibition. The format is cell-based. The note with it: activity against NaV 1.8 channel. As to the method: (§1) Compounds of the invention are useful as antagonists of voltage-gated sodium ion channels. Antagonist properties of test compounds were assessed as follows. Cells expressing the NaV of interest were placed into microtiter plates. After an incubation period, the cells were stained with fluorescent dyes sensitive to the transmembrane potential. The test compounds were added to the microtiter plate. The cells were stimulated with either a chemical or electrical means to evoke a NaV dependent membrane potential change from unblocked channels, which was detected and measured with trans-membrane potential-sensitive dyes. Antagonists were detected as a decreased membrane potential response to the stimulus. The optical membrane potential assay utilized voltage-sensitive FRET sensors described by Gonzalez and Tsien (See, Gonzalez, J. E. and R. Y. Tsien (1995) “Voltage sensing by fluorescence resonance energy transfer in single cells” Biophys J 69(4): 1272-80, and Gonzalez, J. E. and R. Y. Tsien (1997) “Improved indicators of cell membrane potential that use fluorescence resonance energy transfer” Chem Biol 4(4): 269-77) in combination with instrumentation for measuring fluorescence changes such as the Voltage/Ion Probe Reader (VIPR®) (See, Gonzalez, J. E., K. Oades, et al. (1999) “Cell-based assays and instrumentation for screening ion-channel targets” Drug Discov Today 4(9): 431-439).
(§2) C) VIPR® Optical Membrane Potential Assay Method with Electrical Stimulation
(§3) The following is an example of how NaV1.3 inhibition activity is measured using the optical membrane potential method#2. Other subtypes are performed in an analogous mode in a cell line expressing the NaV of interest.
(§4) The electrical stimulation instrument and methods of use are described in ION Channel Assay Methods PCT/US01/21652, herein incorporated by reference. The instrument comprises a microtiter plate handler, an optical system for exciting the coumarin dye while simultaneously recording the coumarin and oxonol emissions, a waveform generator, a current-or voltage-controlled amplifier, and a device for inserting electrodes in well. Under integrated computer control, this instrument passes user-programmed electrical stimulus protocols to cells within the wells of the microtiter plate.
(§5) Assay Protocol • 1 Insert or use electrodes into each well to be assayed. • 2. Use the current-controlled amplifier to deliver stimulation wave pulses for 3 s. Two seconds of pre-stimulus recording are performed to obtain the un-stimulated intensities. Five seconds of post-stimulation recording are performed to examine the relaxation to the resting state.
(§6) Data are analyzed and reported as normalized ratios of background-subtracted emission intensities measured in the 460 nm and 580 nm channels. Background intensities are then subtracted from each assay channel. Background intensities are obtained by measuring the emission intensities during the same time periods from identically treated assay wells in which there are no cells. The response as a function of time is then reported as the ratios obtained using the following formula: […]
(§7) The data is further reduced by calculating the initial (Ri) and final (Rf) ratios. These are the average ratio values during part or all of the pre-stimulation period, and during sample points during the stimulation period. The response to the stimulus , ρ=Rf/Ri is then calculated.
(§8) Control responses are obtained by performing assays in the presence of a compound with the desired properties (positive control) and in the absence of pharmacological agents (negative control). Responses to the negative (N) and positive (P) controls are calculated as above. The activity A of the assay well relative to positive and negative controls is defined as: […]

Test [2] concerns the target T2, NaV1.3 (Homo sapiens, UniProt Q9NY46). As to the kind of experiment: VIPR optical membrane potential assay, NaV 1.3 inhibition. The format is cell-based. On the set-up: expressed in transfected cells; host or cells: HEK293. As to conditions: activity against NaV 1.3 channel. As to the method: as §1, §2, §3
Target sequence in this assay (Q9NY46 whole entry): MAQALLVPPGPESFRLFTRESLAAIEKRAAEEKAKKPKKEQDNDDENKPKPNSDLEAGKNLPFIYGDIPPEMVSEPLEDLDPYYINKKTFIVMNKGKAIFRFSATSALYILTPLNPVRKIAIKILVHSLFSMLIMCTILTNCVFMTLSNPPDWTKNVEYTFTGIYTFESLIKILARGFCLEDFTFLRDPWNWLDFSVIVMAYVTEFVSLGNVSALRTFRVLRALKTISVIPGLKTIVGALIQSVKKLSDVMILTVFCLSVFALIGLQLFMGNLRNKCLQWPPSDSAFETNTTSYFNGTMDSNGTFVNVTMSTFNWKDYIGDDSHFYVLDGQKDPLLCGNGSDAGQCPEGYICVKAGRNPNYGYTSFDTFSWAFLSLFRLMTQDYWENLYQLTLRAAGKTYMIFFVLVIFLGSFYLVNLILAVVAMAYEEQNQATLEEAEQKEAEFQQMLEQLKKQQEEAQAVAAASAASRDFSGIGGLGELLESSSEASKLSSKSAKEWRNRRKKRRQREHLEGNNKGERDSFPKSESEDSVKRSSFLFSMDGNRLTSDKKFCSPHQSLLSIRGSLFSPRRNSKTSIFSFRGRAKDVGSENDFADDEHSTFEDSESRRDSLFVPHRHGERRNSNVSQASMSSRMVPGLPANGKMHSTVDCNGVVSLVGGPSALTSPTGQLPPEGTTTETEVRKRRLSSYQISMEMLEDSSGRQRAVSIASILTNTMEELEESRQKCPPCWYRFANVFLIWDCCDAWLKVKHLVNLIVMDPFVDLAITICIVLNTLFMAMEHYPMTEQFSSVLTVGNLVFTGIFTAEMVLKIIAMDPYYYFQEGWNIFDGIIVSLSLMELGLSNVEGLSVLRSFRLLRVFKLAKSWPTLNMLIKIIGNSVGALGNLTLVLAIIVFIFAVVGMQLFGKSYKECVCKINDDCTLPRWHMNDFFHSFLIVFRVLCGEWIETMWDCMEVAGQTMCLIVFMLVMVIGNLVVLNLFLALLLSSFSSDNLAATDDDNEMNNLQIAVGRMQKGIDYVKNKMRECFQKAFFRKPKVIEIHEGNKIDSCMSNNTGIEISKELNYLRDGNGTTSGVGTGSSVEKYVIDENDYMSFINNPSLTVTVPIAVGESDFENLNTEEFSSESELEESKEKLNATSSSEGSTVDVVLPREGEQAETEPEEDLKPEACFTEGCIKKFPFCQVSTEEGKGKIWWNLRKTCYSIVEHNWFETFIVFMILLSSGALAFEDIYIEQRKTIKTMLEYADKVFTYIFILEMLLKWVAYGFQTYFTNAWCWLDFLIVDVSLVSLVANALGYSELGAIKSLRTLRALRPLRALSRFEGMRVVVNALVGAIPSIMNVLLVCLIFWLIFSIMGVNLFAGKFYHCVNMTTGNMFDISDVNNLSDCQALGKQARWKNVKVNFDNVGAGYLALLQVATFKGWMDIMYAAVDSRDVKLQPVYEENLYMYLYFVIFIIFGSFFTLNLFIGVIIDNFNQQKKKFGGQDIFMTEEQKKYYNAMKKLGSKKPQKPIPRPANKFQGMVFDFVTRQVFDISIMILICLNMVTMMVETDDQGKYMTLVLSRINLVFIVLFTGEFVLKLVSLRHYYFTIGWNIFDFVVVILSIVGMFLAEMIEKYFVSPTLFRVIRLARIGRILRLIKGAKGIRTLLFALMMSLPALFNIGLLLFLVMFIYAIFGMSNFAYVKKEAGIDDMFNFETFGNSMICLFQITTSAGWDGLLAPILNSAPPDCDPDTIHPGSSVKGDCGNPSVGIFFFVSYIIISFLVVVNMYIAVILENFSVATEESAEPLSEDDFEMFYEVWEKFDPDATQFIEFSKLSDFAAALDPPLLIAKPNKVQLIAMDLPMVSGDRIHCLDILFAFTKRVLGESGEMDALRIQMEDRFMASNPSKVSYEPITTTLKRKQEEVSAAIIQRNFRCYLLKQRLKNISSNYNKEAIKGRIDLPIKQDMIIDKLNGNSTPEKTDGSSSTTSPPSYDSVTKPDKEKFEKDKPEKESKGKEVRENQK
HEK293 cells stably expressing NaV1.3 are plated into 96-well microtiter plates. After an appropriate incubation period, the cells are stained with the voltage sensitive dyes CC2-DMPE/DiSBAC2(3) as follows.
Reagents: • 100 mg/mL Pluronic F-127 (Sigma #P2443), in dry DMSO • 10 mM DiSBAC2(3) (Aurora #00-100-010) in dry DMSO • 10 mM CC2-DMPE (Aurora #00-100-008) in dry DMSO • 200 mM ABSC1 in H2O • Hank's Balanced Salt Solution (Hyclone #SH30268.02) supplemented with 10 mM HEPES (Gibco #15630-080)
2×CC2-DMPE=20 μM CC2-DMPE: 10 mM CC2-DMPE is vortexed with an equivalent volume of 10% pluronic, followed by vortexing in required amount of HBSS containing 10 mM HEPES. Each cell plate will require 5 mL of 2×CC2-DMPE. 50 μL of 2×CC2-DMPE is to wells containing washed cells, resulting in a 10 μM final staining concentration. The cells are stained for 30 minutes in the dark at RT.
2×DISBAC2(3) with ABSC1=6 μM DISBAC2(3) and 1 mM ABSC1: The required amount of 10 mM DISBAC2(3) is added to a 50 ml conical tube and mixed with 1 μL 10% pluronic for each mL of solution to be made and vortexed together. Then HBSS/HEPES is added to make up 2× solution. Finally, the ABSC1 is added.
The 2× DiSBAC2(3) solution can be used to solvate compound plates. Note that compound plates are made at 2× drug concentration. Wash stained plate again, leaving residual volume of 50 μL. Add 50 uL/well of the 2× DiSBAC2(3) w/ABSC1. Stain for 30 minutes in the dark at RT.
The electrical stimulation instrument and methods of use are described in ION Channel Assay Methods PCT/US01/21652, herein incorporated by reference. The instrument comprises a microtiter plate handler, an optical system for exciting the coumarin dye while simultaneously recording the coumarin and oxonol emissions, a waveform generator, a current-or voltage-controlled amplifier, and a device for inserting electrodes in well. Under integrated computer control, this instrument passes user-programmed electrical stimulus protocols to cells within the wells of the microtiter plate. […]

A further test concerns the target NaV 1.7 channel (Homo sapiens, UniProt Q15858). The experiment in a line: Optical membrane potential assay, NaV 1.7 inhibition. As to conditions: activity against NaV 1.7 channel. The format is cell-based. As for the experimental part:
as §1, §2, §3, §4, §5, §6, §7, §8

The target of a further test is NaV1.6 (Homo sapiens, UniProt Q9UQD0). The note with it: read-out: TTX IC50; cited from earlier work.
The next test addresses NaV1.1 (Homo sapiens, UniProt P35498). The note with it: read-out: TTX IC50; cited from earlier work.
Another test deals with NaV1.9 (Homo sapiens, UniProt Q9UI33). As to conditions: read-out: TTX IC50; cited from earlier work.
In test [3] the target is T2, NaV1.3. As to conditions: read-out: TTX IC50; cited from earlier work.
Target sequence in this assay (Q9NY46 whole entry, looked up): as the sequence (Q9NY46 whole entry) above
The target of test [4] is T1, NaV1.8. As to conditions: read-out: TTX IC50; cited from earlier work.
The target in a further test is NaV1.2 (Homo sapiens, UniProt Q99250). The note with it: read-out: TTX IC50; cited from earlier work.

The structures appear in SMILES notation. Where two headings read alike, the source gives them in different places.

Here are results for 26 compounds from patent US8519137B2, “Heteroaryl amides useful as inhibitors of voltage-gated sodium channels” (Vertex Pharmaceuticals Incorporated, priority 2007, dated 2013).

NaV 1.7 channel, sequence (Q15858 whole entry): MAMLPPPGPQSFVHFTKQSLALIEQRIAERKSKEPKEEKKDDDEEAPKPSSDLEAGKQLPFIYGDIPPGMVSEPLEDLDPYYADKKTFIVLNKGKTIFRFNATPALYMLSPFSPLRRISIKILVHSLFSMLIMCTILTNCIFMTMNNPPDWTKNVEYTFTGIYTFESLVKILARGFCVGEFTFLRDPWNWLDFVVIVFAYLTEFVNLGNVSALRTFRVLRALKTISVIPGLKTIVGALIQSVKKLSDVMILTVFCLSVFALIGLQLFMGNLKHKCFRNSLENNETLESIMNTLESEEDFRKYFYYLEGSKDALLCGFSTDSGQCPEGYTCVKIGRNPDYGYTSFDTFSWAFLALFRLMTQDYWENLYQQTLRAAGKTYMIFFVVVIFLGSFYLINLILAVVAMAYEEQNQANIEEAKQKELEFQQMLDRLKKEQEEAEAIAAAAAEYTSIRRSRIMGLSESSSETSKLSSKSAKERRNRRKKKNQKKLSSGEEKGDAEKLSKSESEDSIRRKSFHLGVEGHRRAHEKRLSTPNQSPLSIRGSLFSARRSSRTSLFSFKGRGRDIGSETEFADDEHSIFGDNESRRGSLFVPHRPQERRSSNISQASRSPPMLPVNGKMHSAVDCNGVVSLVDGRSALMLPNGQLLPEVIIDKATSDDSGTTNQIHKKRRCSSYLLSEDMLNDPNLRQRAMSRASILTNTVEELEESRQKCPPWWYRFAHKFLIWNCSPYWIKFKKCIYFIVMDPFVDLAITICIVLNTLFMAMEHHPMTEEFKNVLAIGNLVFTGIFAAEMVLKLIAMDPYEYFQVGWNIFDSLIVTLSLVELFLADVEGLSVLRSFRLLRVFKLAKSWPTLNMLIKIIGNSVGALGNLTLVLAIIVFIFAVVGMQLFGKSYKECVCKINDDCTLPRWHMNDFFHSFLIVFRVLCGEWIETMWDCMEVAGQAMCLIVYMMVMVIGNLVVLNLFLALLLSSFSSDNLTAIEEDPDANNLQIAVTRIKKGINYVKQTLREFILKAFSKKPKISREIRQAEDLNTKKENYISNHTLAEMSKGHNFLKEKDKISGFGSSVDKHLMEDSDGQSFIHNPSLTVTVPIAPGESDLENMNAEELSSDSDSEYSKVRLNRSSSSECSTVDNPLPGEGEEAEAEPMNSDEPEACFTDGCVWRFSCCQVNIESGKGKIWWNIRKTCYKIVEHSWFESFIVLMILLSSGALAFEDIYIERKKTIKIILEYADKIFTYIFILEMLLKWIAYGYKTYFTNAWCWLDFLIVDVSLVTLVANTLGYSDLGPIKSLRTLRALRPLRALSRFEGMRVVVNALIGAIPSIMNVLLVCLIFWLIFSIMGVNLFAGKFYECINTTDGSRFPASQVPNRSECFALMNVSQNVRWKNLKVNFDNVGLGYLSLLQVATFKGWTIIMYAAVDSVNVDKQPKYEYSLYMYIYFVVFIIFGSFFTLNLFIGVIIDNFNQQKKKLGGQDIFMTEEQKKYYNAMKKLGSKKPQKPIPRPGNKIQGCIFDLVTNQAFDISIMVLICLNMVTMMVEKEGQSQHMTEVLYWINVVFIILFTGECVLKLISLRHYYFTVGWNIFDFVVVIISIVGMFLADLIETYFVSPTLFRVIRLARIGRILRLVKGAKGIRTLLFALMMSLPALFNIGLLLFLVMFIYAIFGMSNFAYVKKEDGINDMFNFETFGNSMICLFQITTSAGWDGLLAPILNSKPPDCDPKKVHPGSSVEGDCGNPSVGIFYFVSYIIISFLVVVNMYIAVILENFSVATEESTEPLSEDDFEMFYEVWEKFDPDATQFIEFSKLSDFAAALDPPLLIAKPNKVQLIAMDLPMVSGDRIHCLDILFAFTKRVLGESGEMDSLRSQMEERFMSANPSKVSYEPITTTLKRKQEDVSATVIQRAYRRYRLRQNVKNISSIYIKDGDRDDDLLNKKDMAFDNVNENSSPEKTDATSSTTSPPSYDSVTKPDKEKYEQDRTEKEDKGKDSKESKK

One may read the IC50 as the midpoint of a concentration-inhibition curve. Take `Cc1oc(C(C)(C)C)cc1C(=O)Nc1cccc(S(N)(=O)=O)c1` [Compound 3]: the IC50 is less than 2 µM at NaV1.8 [1], greater than 20 µM on NaV1.3 [2] and 10 to 20 µM at NaV 1.7 channel.
Turning to `C[C@@H](c1ccc(F)cc1)N1CCN(Cc2oc(C(C)(C)C)cc2C(=O)Nc2cccc(S(N)(=O)=O)c2)CC1` [Compound 5], the IC50 on NaV1.3 [2] was in the range of 10 to 20 µM.
With `CC(C)(C)c1cc(C(=O)Nc2cccc(S(N)(=O)=O)c2)c(CN2CCCCC2)o1` [Compound 6], the IC50 on NaV1.8 [1] is 2 to 10 µM; at NaV1.3 [2], greater than 20 µM.
On to `Cc1oc(CC(C)C)c(CN2CCOCC2)c1C(=O)Nc1cccc(S(N)(=O)=O)c1` [Compound 7], for which the IC50 was 10 to 20 µM at NaV1.8 [1], greater than 20 µM at NaV1.3 [2] and 2 to 10 µM on NaV 1.7 channel.
In the same order, the values of `Cc1oc(C(C)(C)C)c(CN2CCOCC2)c1C(=O)Nc1cccc(S(N)(=O)=O)c1` [Compound 8] are greater than 20 µM, greater than 20 µM and 10 to 20 µM.
In the same order, the values of `CCN(CC)Cc1oc(-c2ccccc2)cc1C(=O)Nc1cccc(S(N)(=O)=O)c1` [Compound 9] are 2 to 10 µM, 2 to 10 µM and 2 to 10 µM.
Turning to `Cc1ccc(OCc2occc2C(=O)Nc2cccc(S(N)(=O)=O)c2)cc1` [Compound 10], the IC50 at NaV1.3 [2] and on NaV 1.7 channel was greater than 20 µM in each case.
For `Cc1oc(CC(C)C)c(CN2CCCC2)c1C(=O)Nc1cccc(S(N)(=O)=O)c1` [Compound 11], the IC50 lay in the range of 10 to 20 µM on NaV1.8 [1], 10 to 20 µM at NaV1.3 [2] and 2 to 10 µM on NaV 1.7 channel.
For `Cc1oc(CC(C)C)c(CN2CCCCC2)c1C(=O)Nc1cccc(S(N)(=O)=O)c1` [Compound 12], the values for the IC50 on NaV1.8 [1], on NaV1.3 [2] and on NaV 1.7 channel were 2 to 10 µM, 10 to 20 µM and 2 to 10 µM, respectively.
`Cc1oc(C(C)(C)C)c(CO)c1C(=O)Nc1cccc(S(N)(=O)=O)c1` [Compound 13]: the IC50 was less than 2 µM on NaV1.8 [1], 10 to 20 µM on NaV1.3 [2] and 10 to 20 µM at NaV 1.7 channel.
As for `Cc1coc(C)c1C(=O)Nc1cccc(S(N)(=O)=O)c1` [Compound 14], the IC50 at NaV1.8 [1], on NaV1.3 [2] and at NaV 1.7 channel was greater than 20 µM throughout.
For the compound `Cc1oc(C(C)(C)C)cc1C(=O)Nc1cccc(S(N)(=O)=O)c1` [Compound 18], the IC50 on NaV1.8 [1] is less than 2 µM; at NaV1.3 [2], 10 to 20 µM; at NaV 1.7 channel, 10 to 20 µM.
Regarding `NS(=O)(=O)c1cccc(NC(=O)c2cc(-c3ccc(Cl)cc3)cs2)c1` [Compound 19], the IC50 at NaV1.3 [2] lay in the range of 10 to 20 µM.
On the same count and under the same terms, for `NS(=O)(=O)c1cc(NC(=O)c2cc(-c3cccc(Cl)c3)oc2C(F)(F)F)ccc1Cl` [Compound 20] the value was greater than 20 µM.
In the case of `NS(=O)(=O)c1cccc(NC(=O)c2cccnc2Oc2ccc(Cl)cc2)c1` [Compound 21], the IC50 at NaV1.8 [1] and at NaV1.3 [2] was greater than 20 µM in each case.
As for `CC(C)(C)c1ccc(C(=O)Nc2cccc(S(N)(=O)=O)c2)cn1` [Compound 22, 6-tert-Butyl-N-(3-(aminosulfonyl)phenyl)pyridine-3-carboxamide], the figures for the half-inhibitory concentration (IC50) at NaV1.8 [1], on NaV1.3 [2] and on NaV 1.7 channel were 10 to 20 µM, greater than 20 µM and greater than 20 µM, respectively.
In the case of `CC(C)(C)c1nnc(C(=O)Nc2cccc(S(N)(=O)=O)c2)s1` [Compound 23, 5-tert-Butyl-N-(3-sulfamoylphenyl)-1,3,4-thiadiazole-2-carboxamide], the IC50 on NaV1.8 [1], on NaV1.3 [2] and at NaV 1.7 channel was greater than 20 µM throughout.
Regarding `Cc1nc(C(C)(C)C)sc1C(=O)Nc1cccc(S(N)(=O)=O)c1` [Compound 24], the IC50 on NaV1.3 [2] and on NaV 1.7 channel was greater than 20 µM in each case.
Regarding `Cc1oc(C(C)(C)C)nc1C(=O)Nc1cccc(S(N)(=O)=O)c1` [Compound 25], the IC50 at NaV1.8 [1] was 10 to 20 µM; on NaV1.3 [2] it was greater than 20 µM; on NaV 1.7 channel, 10 to 20 µM.
With `CC(C)(C)c1nc(C(=O)Nc2cccc(S(N)(=O)=O)c2)n(Cc2ccccc2)n1` [Compound 26, 5-tert-Butyl-2-benzyl-N-(3-(aminosulfonyl)phenyl)-2H-1,2,4-triazole-3-carboxamide], the concentration for half-maximal inhibition (IC50) on NaV1.8 [1] is 10 to 20 µM; on NaV1.3 [2], greater than 20 µM.
For `Cn1nc(C(C)(C)C)nc1C(=O)Nc1cccc(S(N)(=O)=O)c1` [Compound 27], the IC50 on NaV1.3 [2] was greater than 20 µM.
With `NS(=O)(=O)c1cccc(NC(=O)c2ccc(-c3cccc(C(F)(F)F)c3)o2)c1` [Compound 29], the values for the IC50 on NaV1.3 [2] and on NaV 1.7 channel were 2 to 10 µM and 10 to 20 µM, respectively.
Consider `NS(=O)(=O)c1cccc(NC(=O)c2cc(-c3ccccc3)on2)c1` [Compound 30], for which, at NaV 1.7 channel, the IC50 was in the range of 10 to 20 µM.
Take `COc1ccc(-c2cc(C(=O)Nc3cccc(S(N)(=O)=O)c3)on2)cc1` [Compound 31]: the IC50 at NaV 1.7 channel was greater than 20 µM.
On the same count and under the same terms, for `COc1cccc(-c2cc(C(=O)Nc3cccc(S(N)(=O)=O)c3)no2)c1` [Compound 32] the value was greater than 20 µM.
Regarding `NC1=N[C@H](O)[C@H]2[C@H]3O[C@]4(O)O[C@@H]([C@@H](O)[C@@]2(N1)[C@@H]4O)[C@]3(O)CO` [TTX, tetrodotoxin], the IC50 on NaV1.6 is 0.006 µM; on NaV1.1, 0.01 µM; on NaV1.9 it was 1 µM; at NaV1.3 [3], 0.015 µM; on NaV1.8 [4], greater than 50 µM; on NaV1.2, 0.01 µM.
